From ChEMBL document CHEMBL1955861, “Aminoimidazoles as BACE-1 inhibitors: the challenge to achieve in vivo brain efficacy” (Bioorg Med Chem Lett, 2012)

Experiments:
[1] = Dissociation constant, pKa of the compound; type: physicochemical
[2] = Drug uptake in C57BL/6 mouse brain at 300 umol/kg, po administered as single dose 15 mins after GF120918 90 umol/kg, po measured after […] by RPLC-MS/MS analysis; type: ADME, organism-based; conditions: with GF120918 90 umol/kg po, read-out: Drug uptake
[3] = Ratio of drug level in brain to plasma in C57BL/6 mouse at 300 umol/kg, po administered as single dose measured after […] by RPLC-MS/MS analysis; type: ADME, organism-based; conditions: read-out: BPR
[4] = Ratio of drug level in brain to plasma in C57BL/6 mouse at 300 umol/kg, po administered as single dose 15 mins after GF120918 90 umol/kg, po measured after […] by RPLC-MS/MS analysis; type: ADME, organism-based; conditions: with GF120918 90 umol/kg po, read-out: BPR

| SMILES | pKa [1] | further results |
| --- | --- | --- |
| COc1ccc(F)c(-c2cccc(C3(c4ccncc4)N=C(N)N4CC(F)(F)CN=C43)c2)c1 (centres undefined) | 5.9 | – |
| COc1cccc(-c2cccc([C@]3(c4ccncc4)N=C(N)N4CC(F)(F)CN=C43)c2)c1F | 5.3 | – |
| NC1=N[C@](c2ccc(OC(F)F)cc2)(c2cccc(OCCCF)c2)C2=NCC(F)(F)CN12 | – | concentration at […] [2]: 4 µM; Kp at […] [3]: 0.18; Kp at […] [4]: 2.34 |
| NC1=NC(c2ccncc2)(c2cccc(-c3cncnc3)c2)C2=NCCCN12 (centres undefined) | 7.6 | – |

Further lines, with some results ahead:

| pKa [1] | SMILES | further results |
| --- | --- | --- |
| 6.8 | COc1ccc(C2(c3cccc(-c4cncnc4)c3)N=C(N)N3CC(F)(F)CN=C32)cc1 (centres undefined) | – |
| 6.1 | NC1=NC(c2ccc(OC(F)F)cc2)(c2cccc(-c3cncnc3)c2)C2=NCC(F)(F)CN12 (centres undefined) | – |
| 6.5 | NC1=NC(c2ccc(OC(F)F)cc2)(c2cccc(OCCCF)c2)C2=NCC(F)(F)CN12 (centres undefined) | – |
